Like-named read-outs stand apart in the source and are kept apart here. Starred links: 1 amine or outer side, 2 acyl side, 3 side chain; linkers in the order of their positions; H or OH if unused. Non-standard residues stand in square brackets, D forms with d. Residues, ends and D or L forms follow the SMILES beside them. ξ: configuration not given here. *: point of attachment. Oic = O=C(O)[C@@H]1C[C@@H]2CCCC[C@@H]2N1; Phe(4-Cl) = N[C@@H](Cc1ccc(Cl)cc1)C(=O)O; γGlu = O=C(O)[C@H](CCC(=O)[*:2])N[*:1]; d(β3hF) = N[C@@H](CC(=O)O)Cc1ccccc1; NMeR = CN[C@@H](CCCNC(=N)N)C(=O)O; Palmitoyl = CCCCCCCCCCCCCCCC(=O)*; Tridecanoyl = CCCCCCCCCCCCC(=O)*; hArg = N=C(N)NCCCC[C@H](N)C(=O)O; Cha = N[C@@H](CC1CCCCC1)C(=O)O; αMeL = CC(C)C[C@](C)(N)C(=O)O; αMeP = C[C@@]1(C(=O)O)CCCN1; β3hS = N[C@@H](CO)CC(=O)O; Ac6c = NC1(C(=O)O)CCCCC1; Nle = CCCC[C@H](N)C(=O)O; ξβ3hV = CC(C)C(N)CC(=O)O; AEEA = NCCOCCOCC(=O)O; Aib = CC(C)(N)C(=O)O
Legend:
[1] = In vitro stability in rat liver homogenate; type: in vitro ADME; conditions: tissue homogenate
In short: (§1)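 Stability was followed for 4 hr at 37° C. after spiking peptides (5 μM final) into rat plasma and tissue homogenates. Methanol quench with internal standard preceded high resolution LC-MS.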

[2] = In vitro stability in rat kidney homogenate; type: in vitro ADME; conditions: rat, tissue homogenate
In short: as §1

rat APJ receptor = biological target: T1, rat APJ receptor (Rattus norvegicus, UniProt Q9JHG3); test: [35S] GTPγS assay, rat APJ receptor; type: biochemical
T1 construct: expressed in transfected cells
T1 sequence (Q9JHG3 1-377): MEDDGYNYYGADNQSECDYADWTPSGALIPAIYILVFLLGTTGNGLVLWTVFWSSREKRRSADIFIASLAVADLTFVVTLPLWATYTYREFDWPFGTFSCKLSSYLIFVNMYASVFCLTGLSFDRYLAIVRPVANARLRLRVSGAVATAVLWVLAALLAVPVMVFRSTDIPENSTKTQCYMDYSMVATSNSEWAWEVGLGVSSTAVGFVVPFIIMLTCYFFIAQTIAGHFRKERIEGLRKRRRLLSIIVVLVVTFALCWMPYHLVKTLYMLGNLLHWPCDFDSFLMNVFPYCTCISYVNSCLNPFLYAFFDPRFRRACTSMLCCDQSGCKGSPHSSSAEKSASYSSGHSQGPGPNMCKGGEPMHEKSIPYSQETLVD
Experimental: The membranes were incubated with modified peptides in the assay buffer. […] Bound [^35S] GTPγS was separated from free radiolabel by filtration. The filter bound radioactivity was determined by liquid scintillation counting.

[3] = In vitro stability in rat plasma; type: in vitro ADME
In short: as §1

[4] = Table 16, read-out: EC50 Rat APJ Receptor
[5] = rat APJ receptor, read-out: EC50 Rat APJ Receptor

remaining at 4 h, 5 μM [1]	remaining at 4 h, 5 μM [2]	EC50 (rat APJ receptor; [4])	remaining at 4 h, 5 μM [3]	EC50 (rat APJ receptor; [5])	Structure (SMILES)
6.2%	< 1%	0.18 nM	76%	–	CCCCCCCCCCCCC(=O)N[C@@H](CCC(=O)NCCOCCOCC(=O)NCCOCCOCC(=O)N[C@@H](CCC(N)=O)C(=O)N[C@@H](CCCNC(=N)N)C(=O)N1CCC[C@H]1C(=O)N[C@@H](CCCCNC(=N)N)C(=O)N[C@@H](CC1CCCCC1)C(=O)N[C@@H](CO)C(=O)N[C@@H](Cc1c[nH]cn1)C(=O)N[C@@H](CCCCN)C(=O)NCC(=O)N1[C@H](C(=O)N[C@@H](CCCC)C(=O)N2CCC[C@H]2C(=O)N[C@@H](Cc2ccc(Cl)cc2)C(=O)O)C[C@@H]2CCCC[C@@H]21)C(=O)O [compound 308] ({Tridecanoyl-γGlu-AEEA-AEEA}-QRP[hArg][Cha]SHKG[Oic][Nle]P[Phe(4-Cl)]-OH)
39%	2.5%	3.75 nM	79%	–	CCCCCCCCCCCCC(=O)N[C@@H](CCC(=O)NCCOCCOCC(=O)NCCOCCOCC(=O)N[C@@H](CCC(N)=O)C(=O)N[C@@H](CCCCNC(=N)N)C(=O)N1CCC[C@H]1C(=O)N(C)[C@@H](CCCNC(=N)N)C(=O)N[C@@H](CC1CCCCC1)C(=O)N[C@@H](CO)C(=O)N[C@@H](Cc1c[nH]cn1)C(=O)N[C@@H](CCCCN)C(=O)NCC(=O)N1[C@H](C(=O)N[C@@H](CCCC)C(=O)N2CCC[C@H]2C(=O)N[C@@H](Cc2ccc(Cl)cc2)C(=O)O)C[C@@H]2CCCC[C@@H]21)C(=O)O [compound 362] ({Tridecanoyl-γGlu-AEEA-AEEA}-Q[hArg]P[NMeR][Cha]SHKG[Oic][Nle]P[Phe(4-Cl)]-OH)
77%	6%	–	62%	52.2 nM	CCCCCCCCCCCCCCCC(=O)N[C@@H](CCC(=O)NCCOCCOCC(=O)NCCOCCOCC(=O)N[C@H](CCC(N)=O)C(=O)N[C@@H](CCCNC(=N)N)C(=O)N1CCC[C@H]1C(=O)N(C)[C@@H](CCCNC(=N)N)C(=O)N[C@@H](CC1CCCCC1)C(=O)N[C@@H](CO)C(=O)N[C@@H](Cc1c[nH]cn1)C(=O)N[C@@H](CCCCN)C(=O)NCC(=O)N1[C@H](C(=O)N[C@@H](CCCC)C(=O)NC2(C(=O)N[C@@H](Cc3ccc(Cl)cc3)C(=O)O)CCCCC2)C[C@@H]2CCCC[C@@H]21)C(=O)O [compound 584] ({Palmitoyl-γGlu-AEEA-AEEA}-[dQ]RP[NMeR][Cha]SHKG[Oic][Nle][Ac6c][Phe(4-Cl)]-OH)
59%	27%	–	79%	4.25 nM	CCCCCCCCCCCCCCCC(=O)N[C@@H](CCC(=O)NCCOCCOCC(=O)NCCOCCOCC(=O)N[C@H](CCC(N)=O)C(=O)N[C@@H](CCCNC(=N)N)C(=O)N1CCC[C@H]1C(=O)N(C)[C@@H](CCCNC(=N)N)C(=O)N[C@@H](CC1CCCCC1)C(=O)N[C@@H](CO)C(=O)N[C@@H](Cc1c[nH]cn1)C(=O)N[C@@H](CCCCN)C(=O)NCC(=O)N1[C@H](C(=O)N[C@@H](CCCC)C(=O)N[C@@H](CC(=O)O)Cc2ccccc2)C[C@@H]2CCCC[C@@H]21)C(=O)O [compound 573] ({Palmitoyl-γGlu-AEEA-AEEA}-[dQ]RP[NMeR][Cha]SHKG[Oic][Nle][d(β3hF)]-OH)
1%	3%	0.351 nM	6%	–	CCCCCCCCCCCCC(=O)N[C@@H](CCC(=O)NCCOCCOCC(=O)NCCOCCOCC(=O)N[C@@H](CCC(N)=O)C(=O)N[C@@H](CCCNC(=N)N)C(=O)N1CCC[C@H]1C(=O)N(C)[C@@H](CCCNC(=N)N)C(=O)N[C@@H](CC(C)C)C(=O)N[C@@H](CO)C(=O)N[C@@H](Cc1c[nH]cn1)C(=O)N[C@@H](CCCCN)C(=O)NCC(=O)N1CCC[C@H]1C(=O)N[C@@H](CCCC)C(=O)N1CCC[C@@]1(C)C(=O)N[C@@H](Cc1ccc(Cl)cc1)C(=O)O)C(=O)O [compound 401]
15%	1%	–	> 90%	0.364 nM	CCCCCCCCCCCCC(=O)N[C@@H](CCC(=O)NCCOCCOCC(=O)NCCOCCOCC(=O)N[C@@H](CCCCNC(=N)N)C(=O)N[C@@H](CCC(N)=O)C(=O)N[C@@H](CCCCNC(=N)N)C(=O)N1CCC[C@H]1C(=O)N(C)[C@@H](CCCNC(=N)N)C(=O)N[C@@H](CC1CCCCC1)C(=O)N[C@@H](CO)C(=O)N[C@@H](Cc1c[nH]cn1)C(=O)N[C@@H](CCCCN)C(=O)NCC(=O)N1[C@H](C(=O)N[C@@H](CCCC)C(=O)N2CCC[C@H]2C(=O)N[C@@H](Cc2ccc(Cl)cc2)C(=O)O)C[C@@H]2CCCC[C@@H]21)C(=O)O [compound 310] ({Tridecanoyl-γGlu-AEEA-AEEA}-[hArg]Q[hArg]P[NMeR][Cha]SHKG[Oic][Nle]P[Phe(4-Cl)]-OH)
32%	11%	–	> 90%	19.8 nM	CCCCCCCCCCCCCCCC(=O)N[C@@H](CCC(=O)NCCOCCOCC(=O)NCCOCCOCC(=O)N[C@H](CCC(N)=O)C(=O)N[C@@H](CCCNC(=N)N)C(=O)N1CCC[C@H]1C(=O)N(C)[C@@H](CCCNC(=N)N)C(=O)N[C@@H](CC1CCCCC1)C(=O)N[C@@H](CO)C(=O)N[C@@H](Cc1c[nH]cn1)C(=O)N[C@@H](CCCCN)C(=O)NCC(=O)N1[C@H](C(=O)N[C@@H](CCCC)C(=O)N2CCC[C@@]2(C)C(=O)N[C@@H](CC(=O)O)Cc2ccccc2)C[C@@H]2CCCC[C@@H]21)C(=O)O [compound 570] ({Palmitoyl-γGlu-AEEA-AEEA}-[dQ]RP[NMeR][Cha]SHKG[Oic][Nle][αMeP][d(β3hF)]-OH)
3%	2%	0.116 nM	62%	–	CCCCCCCCCCCCC(=O)N[C@@H](CCC(=O)NCCOCCOCC(=O)NCCOCCOCC(=O)N[C@@H](CCC(N)=O)C(=O)N[C@@H](CCCCNC(=N)N)C(=O)N1CCC[C@H]1C(=O)N(C)[C@@H](CCCNC(=N)N)C(=O)N[C@@](C)(CC(C)C)C(=O)N[C@@H](CO)C(=O)N[C@@H](Cc1c[nH]cn1)C(=O)N[C@@H](CCCCN)C(=O)NCC(=O)N1[C@H](C(=O)N[C@@H](CCCC)C(=O)N2CCC[C@H]2C(=O)N[C@@H](Cc2ccc(Cl)cc2)C(=O)O)C[C@@H]2CCCC[C@@H]21)C(=O)O [compound 359] ({Tridecanoyl-γGlu-AEEA-AEEA}-Q[hArg]P[NMeR][αMeL]SHKG[Oic][Nle]P[Phe(4-Cl)]-OH)
2%	1%	16.5 nM	87%	–	CCCCCCCCCCCCC(=O)N[C@@H](CCC(=O)NCCOCCOCC(=O)NCCOCCOCC(=O)N[C@@H](CCC(N)=O)C(=O)N(C)[C@@H](CCCNC(=N)N)C(=O)N[C@@](C)(CC(C)C)C(=O)N[C@@H](CO)C(=O)N[C@@H](Cc1c[nH]cn1)C(=O)N[C@@H](CCCCN)C(=O)NCC(=O)N1[C@H](C(=O)N[C@@H](CCCC)C(=O)N2CCC[C@H]2C(=O)N[C@@H](Cc2ccc(Cl)cc2)C(=O)O)C[C@@H]2CCCC[C@@H]21)C(=O)O [compound 397] ({Tridecanoyl-γGlu-AEEA-AEEA}-Q[NMeR][αMeL]SHKG[Oic][Nle]P[Phe(4-Cl)]-OH)
13%	< 1%	3.14 nM	> 90%	–	CCCCCCCCCCCCC(=O)N[C@@H](CCC(=O)NCCOCCOCC(=O)NCCOCCOCC(=O)N[C@H](CCC(N)=O)C(=O)N[C@@H](CCCNC(=N)N)C(=O)N1CCC[C@H]1C(=O)N(C)[C@@H](CCCNC(=N)N)C(=O)N[C@@H](CC1CCCCC1)C(=O)N[C@@H](CO)CC(=O)N[C@@H](Cc1c[nH]cn1)C(=O)N[C@@H](CCCCN)C(=O)NCC(=O)N1[C@H](C(=O)N[C@@H](CCCC)C(=O)NC(C)(C)C(=O)N[C@@H](Cc2ccc(Cl)cc2)C(=O)O)C[C@@H]2CCCC[C@@H]21)C(=O)O [compound 500] ({Tridecanoyl-γGlu-AEEA-AEEA}-[dQ]RP[NMeR][Cha][β3hS]HKG[Oic][Nle][Aib][Phe(4-Cl)]-OH)
< 1%	6%	–	2%	5.94 nM	CCCC[C@H](NC(=O)[C@@H]1CCCN1C(=O)CNC(=O)[C@H](CCCCN)NC(=O)[C@H](Cc1c[nH]cn1)NC(=O)[C@H](CO)NC(=O)[C@](C)(CC(C)C)NC(=O)[C@H](CCCCNC(=N)N)NC(=O)[C@@H]1CCCN1C(=O)[C@@H](CCCNC(=N)N)NC(=O)[C@H](CCC(N)=O)NC(=O)COCCOCCNC(=O)COCCOCCNC(=O)CC[C@H](NC(=O)CCCCC(=O)O)C(=O)O)C(=O)N1CCC[C@H]1C(=O)N[C@@H](Cc1ccc(Cl)cc1)C(=O)O [compound 515]
8%	2%	–	86%	1.5 nM	CCCCCCCCCCCCC(=O)N[C@@H](CCC(=O)NCCOCCOCC(=O)NCCOCCOCC(=O)NC(CC(=O)N[C@@H](CCCNC(=N)N)C(=O)N1CCC[C@H]1C(=O)N(C)[C@@H](CCCNC(=N)N)C(=O)NC(CC(=O)N[C@@H](CO)C(=O)N[C@@H](Cc1c[nH]cn1)C(=O)N[C@@H](CCCCN)C(=O)NCC(=O)N1[C@H](C(=O)N[C@@H](CCCC)C(=O)N2CCC[C@H]2C(=O)N[C@@H](Cc2ccc(Cl)cc2)C(=O)O)C[C@@H]2CCCC[C@@H]21)C(C)C)C(C)C)C(=O)O (stereo partly drawn) [compound 394] ({Tridecanoyl-γGlu-AEEA-AEEA}-[ξβ3hV]RP[NMeR][ξβ3hV]SHKG[Oic][Nle]P[Phe(4-Cl)]-OH)
